Laboratory results as given in patent US10695399B2, “Peptides for prevention of HIV infection” (SYRACUSE UNIVERSITY, priority 2017, dated 2020).
Residues, ends and D or L forms follow the SMILES beside them. *: point of attachment. Dansyl = CN(C)c1cccc2c(S(=O)(=O)*)cccc12

Key:
[1] = molecular target: T1, SEVI (aggregated semen enhancer of virus infection) (Homo sapiens, UniProt P15309); experiment: Dansyl fluorescence binding study with SEVI
T1 construct: SEVI is the aggregated portion of the human protein that promotes infectivity
T1 sequence (P15309 248-286 limits assumed): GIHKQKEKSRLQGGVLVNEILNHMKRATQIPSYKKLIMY
Method: FIG. 1A is a graph of fluorescence spectra of a first dansylated peptide according to the present invention in a binding study with PAP and SEVI at a first concentration;
FIG. 1B is a graph of fluorescence spectra of the first dansylated peptide according to the present invention in a binding study with PAP and SEVI at a first concentration incubated for 24 hours;
FIG. 2A is a graph of fluorescence spectra of a first dansylated peptide according to the present invention in a binding study with PAP and SEVI at a second concentration; and
FIG. 2B is a graph of fluorescence spectra of a second dansylated peptide according to the present invention in a binding study with PAP and SEVI at a second concentration.
Dansyl is the fluorescent dye that is attached to peptides. A change in Dansyl fluorescence indicates change in the environment, i.e. binding. The physiological concentration of PAP and SEVI is 5 micromolar.

[2] = Preliminary toxicity studies

Compound | Kd [1] [µM] | toxicity [2]
CC[C@H](C)[C@H](NC(=O)[C@H](CCC(=O)O)NC(=O)[C@H](CCC(N)=O)NC(=O)[C@@H](NC(=O)[C@@H](NC(=O)[C@H](CCC(=O)O)NC(=O)[C@H](CCC(=O)O)NC(=O)[C@H](Cc1ccccc1)NS(=O)(=O)c1cccc2c(N(C)C)cccc12)[C@@H](C)CC)C(C)C)C(=O)N[C@@H](CCC(=O)O)C(=O)N[C@@H](CC(=O)O)C(=O)N[C@@H](Cc1ccccc1)C(=O)N[C@@H](CC(C)C)C(=O)N[C@@H](CCC(=O)O)C(=O)N[C@@H](CC(N)=O)C(=O)N[C@@H](CC(C)C)C(=O)N[C@H](C(N)=O)C(C)C [Peptide 1, FEEIVQEIEDFLENLV] (Dansyl-FEEIVQEIEDFLENLV-NH2) | < 5 | non-toxic
CC[C@H](C)[C@H](NC(=O)CNS(=O)(=O)c1cccc2c(N(C)C)cccc12)C(=O)NCC(=O)N[C@@H](C)C(=O)N[C@H](C(=O)N[C@@H](CC(C)C)C(=O)N[C@@H](CCC(=O)O)C(=O)N[C@H](C(=O)N[C@@H](CC(C)C)C(=O)N[C@H](C(=O)N[C@H](C(=O)NCC(=O)N[C@@H](CC(C)C)C(=O)N1CCC[C@H]1C(=O)N[C@@H](C)C(=O)N[C@@H](CC(C)C)C(=O)N[C@H](C(=O)N[C@@H](CO)C(=O)N[C@@H](Cc1c[nH]c2ccccc12)C(=O)N[C@H](C(=O)N[C@@H](CCC(=O)O)C(=O)N[C@@H](CCC(=O)O)C(=O)N[C@@H](CCC(=O)O)C(=O)N[C@@H](CCC(=O)O)C(=O)N[C@@H](CCC(N)=O)C(=O)N[C@@H](CCC(N)=O)C(N)=O)[C@@H](C)CC)[C@@H](C)CC)[C@@H](C)O)[C@@H](C)O)C(C)C)C(C)C [Peptide 2] |  | non-toxic
